One molecule from patent US20210186972A1, “FORMULATIONS AND METHODS FOR THE PREVENTION AND TREATMENT OF TUMOR METASTASIS AND TUMORIGENESIS” (THE UNITED STATES OF AMERICA, AS REPRESENTED BY THE …, priority 2018, published 2021) can be followed below.

The nature of data set [1]: Repeat dose plasma pharmacokinetics, IP. In kind it is in vivo, SCID Beige mice. To be noted: for concentration at 24 h: SCID Beige, mouse, plasma, intraperitoneal. The protocol: Metarrestin was administered to female BALB/c mice, n=3 in the single dose and the repeat doses were administered to SCID-beige mice, n=3 per time point. The repeat dose study mice were given daily intraperitoneal injections for 4 weeks, with concentration measured 24 h after the last dose. Metarrestin was formulated in 5% NMP+20% PEG400+75% (10% […] in water).
BALB/c mice, 17-19 g, female, n=66, were purchased and had free access to food and water. They were dosed with metarrestin at 5 or 25 mg/kg (10 ml/kg) in 5% NMP [NMP (Sigma-Aldrich cat #270458), 20% PEG400 (Sigma-Aldrich cat #202398), and 75% 10% HPBCD (Sigma-Aldrich cat #H107)] via lower left abdominal quadrant injection (n=33 each dose). The animals were anesthetized with isoflurane and restrained manually at the designated time points. Approximately 120 μL of blood were taken from the animals into K2EDTA tubes via retro-orbital puncture. Blood samples were placed on ice and centrifuged (2,000 g, 5 min under 4° C.) to obtain plasma samples within 15 minutes. An aliquot of 20 μL plasma sample was protein-precipitated with 200 μL acetonitrile that contained 50 ng/mL IS (dexamethasone). The mixture was vortexed for 2 min, centrifuged at 14,000 rpm for 5 min, and an aliquot of 30 μL supernatant was diluted with 70 μL MeOH:H2O (1:1, v/v), then vortexed for 2 min. A 2 μL aliquot of supernatant was injected into UPLC-MS/MS. Analysis of samples was done with an LC-MS/MS-02 (API4000), Waters-BEH-C18 (2.1×50 mm, 1.7 μm) column, flow rate 0.6 mL/min, with a mobile phase consisting of solvent A (H2O— 0.025% FA-1 mM NH4OAc) and solvent B (MeOH— 0.025% FA-1 mM NH4OAc). The gradient was 10, 90, 90, 10% B at 0.30, 0.60, 1.20, 1.21, 1.80 (stop) min. Retention times for metarrestin and dexamethasone were 1.09 and 1.08 min, respectively. Calibration curves were established with known serially diluted concentrations of metarrestin before analysis. SCID Beige mice were purchased and dosed with metarrestin at 5 and 25 mg/kg, once daily at 24 hour intervals for 4 weeks as above. Twenty-four hours after the final dose, the concentrations of metarrestin in plasma were analyzed.

The test system of data set [2] is Pol I transcription (5′ETS RNA). Briefly: rDNA transcription: BrU incorporation and qRT-PCR of 5′ETS. In kind it is cell-based. The protocol:
To determine which steps in ribosomal biogenesis that are disrupted by metarrestin, rDNA transcription was evaluated using a BrU incorporation assay, an in situ run-on assay that detects the localization pattern of newly synthesized RNA. Cells were rinsed once in glycerol buffer (20 mM Tris-HCl pH 7.4, 5 mM MgCl2, 25% glycerol, 0.5 mM PMSF, 0.5 mM EGTA) and followed by Br—U incorporation assay protocol. The cells were co-immunolabeled with C23 (Santa Cruz Biotechnology) at a 1:100 dilution and anti-BrdU that also recognizes Br—U (Sigma) at a 1:50 dilution.
To evaluate the impact on rDNA transcription in metarrestin-treated cells, the amounts of 5′ETS RNA were quantified. The amount of 5′ETS correlates with the amount of rDNA transcription because 5′ETS in nascent pre-rRNA transcripts is rapidly removed.
RT-PCR: Total RNA was isolated from cells using TRIZOL reagent (Invitrogen) according to the manufacturer's instructions. cDNA was synthesized with Random Hexamer (IDT DNA Technologies) or gene-specific primers using M-MLV Reverse Transcriptase (Invitrogen 28025-013). The DNA was PCR-amplified with gene-specific primers. 5′ETS-F: […] (SEQ ID NO: 11); 5′ETS-R: GAACGACACACCACCGTTC (SEQ ID NO: 12); eEF1A1-F: […] […]
In general terms: Quantitative PCR measures a nucleic acid by following its amplification.

Another data set has as its system eEF1A. Briefly: Western blot of total eEF1A. In kind it is cell-based. To be noted: 1 μM, 24 hours. (In general: A western blot detects proteins with antibodies after separation by electrophoresis.)
A further data set has as its system PANC1 cells. The experiment in a line: Cell growth, PANC1. The format is cell-based, human. To be noted: 0.6 μM, after 24 hours of treatment. An excerpt: FIG. 63 is a graph showing the drug response of PANC1 cells following metarrestin treatment. […] Mean cell viability values are plotted with standard error of the mean (SEM) from at least 2 independent experiments done in triplicate.

The next data set concerns RPA194 and UBF. The experiment in a line: Western blot of RPA194 and UBF. The format is cell-based. To be noted: 1 μM, 24 hours, PANC1, PC3M, and HeLa. The protocol:
Western blots were performed according to the manufacturer's protocols (Li-COR). Transfer membrane was from Millipore (cat. no. IPFL00010). The primary antibodies used were phospho-γ H2AX (Upstate 07-164, rabbit, 1:1000); p53 (Santa Cruz Biotechnology sc-6243 rabbit 1:500); UBF (F-9) (Santa Cruz Biotechnology, mouse, 1:500); RPA194 (Santa Cruz Biotechnology, sc-48385, mouse, 1:500); p53BP1 (Novus, NB100-304, rabbit 1:10,000); EF1a (Millipore 05-235, mouse, 1:1000), HA-Tag (C29F4, Cell Signaling, rabbit 1:1000) and actin (Sigma A5060, rabbit, 1:3000, A4700, mouse, 1:1000) as a loading control. LI-COR IRDye secondary antibodies (1:10,000), goat anti-mouse-680RD (926-68070), goat anti-mouse-800CW (926-32210), goat-anti-rabbit-680RD (926-68071), goat-anti-rabbit-800CW (926-32211) were used for visualization. Protein bands were detected using LI-COR Odyssey Image Studio (LI-COR Biosciences).
Psoralen crosslinks active accessible DNA under UV light without displacing nucleosomes or transcription factors, or changing chromatin states. Psoralen-crosslinked DNA moves slower on agarose gel and can be distinguished from the non-crosslinked DNA by Southern blots. […] To examine the interactions between Pol I transcription factors and rDNA, quantitative ChIP experiments were carried out using primer sets across promoter and coding regions of rDNA (FIG. 29-30E).

The mark [3] stands for this setting: 25 mg/kg IP once daily for 4 weeks, 24 h after the final dose.

For `N=c1c2c(-c3ccccc3)c(-c3ccccc3)n(Cc3ccccc3)c2ncn1[C@H]1CC[C@H](O)CC1` [metarrestin], the Plasma concentration in data set [1] (setting [3]) came to 1460 nM. Also, the concentration at 24 h in data set [1] (5 mg/kg IP once daily for 4 weeks, 24 h after the final dose) came out at 48.4 ng/mL; in data set [1] (setting [3]) it was 692 ng/mL. Further, the Risk of accumulation result in data set [1] (single and multiple daily IP dosing, 5 and 25 mg/kg) was “predicted moderate risk of accumulation”. Moreover, in data set [2] (five-minute incubation), the “Organization of newly synthesized rRNA (BrU incorporation)” value is “altered into tight small clusters”. In data set [2] (vs DMSO-treated control cells), the “5′ETS RNA (quantitative RT-PCR)” value is “substantial reduction of 5′ETS RNA”. In the data set with eEF1A, the “Total eEF1A protein” value is given as “remained similar”. Also, in the data set on PANC1 cells, the PANC1 cell growth entry is recorded as “did not affect PC3M or PANC1 cell growth”. For the same molecule, in the data set with RPA194 and UBF, the “Amounts of Pol I large subunit RPA194 and UBF” value is “did not change significantly”.
